In patent US7345070B2, “Peroxisome proliferator activated receptor agonists” (Eli Lilly and Company, priority 2000, dated 2008):

Target: T1, huPPARγ (Homo sapiens, UniProt P37231)
T1 sequence (P37231 1-505): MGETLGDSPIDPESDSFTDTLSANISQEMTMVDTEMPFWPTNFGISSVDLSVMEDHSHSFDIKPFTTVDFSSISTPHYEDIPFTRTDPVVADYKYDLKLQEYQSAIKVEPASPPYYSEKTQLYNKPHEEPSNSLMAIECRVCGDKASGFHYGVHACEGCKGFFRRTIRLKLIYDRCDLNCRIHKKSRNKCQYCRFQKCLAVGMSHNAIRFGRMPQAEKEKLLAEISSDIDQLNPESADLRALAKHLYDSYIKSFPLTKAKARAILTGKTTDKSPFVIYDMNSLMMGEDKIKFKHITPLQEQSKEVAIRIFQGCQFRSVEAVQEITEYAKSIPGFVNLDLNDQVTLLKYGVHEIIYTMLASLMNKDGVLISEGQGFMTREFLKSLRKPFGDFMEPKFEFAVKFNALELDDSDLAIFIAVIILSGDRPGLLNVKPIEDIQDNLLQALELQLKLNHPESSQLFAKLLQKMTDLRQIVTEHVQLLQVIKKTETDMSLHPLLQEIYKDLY
T1 sequence (P19793 1-462 partner): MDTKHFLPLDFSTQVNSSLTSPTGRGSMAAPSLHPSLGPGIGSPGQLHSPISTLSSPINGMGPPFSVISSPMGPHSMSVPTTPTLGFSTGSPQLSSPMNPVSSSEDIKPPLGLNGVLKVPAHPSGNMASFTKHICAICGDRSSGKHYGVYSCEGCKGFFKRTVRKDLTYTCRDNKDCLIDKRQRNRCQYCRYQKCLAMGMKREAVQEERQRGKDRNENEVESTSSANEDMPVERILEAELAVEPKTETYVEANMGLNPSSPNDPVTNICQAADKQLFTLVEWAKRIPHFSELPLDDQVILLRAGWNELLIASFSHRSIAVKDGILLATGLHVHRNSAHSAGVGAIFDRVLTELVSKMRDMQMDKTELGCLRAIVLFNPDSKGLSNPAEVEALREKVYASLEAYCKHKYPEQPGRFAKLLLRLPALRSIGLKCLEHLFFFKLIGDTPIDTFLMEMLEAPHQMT
Assay: Cotransfection assay in CV-1 cells, huPPARγ
Format: cell-based
Set-up: Appropriate PPARs and RXRα were constitutively expressed using plasmids containing the CMV promoter; expressed in transfected cells; host or cells: CV-1 cells
Conditions: AOX PPRE luciferase reporter, relative to PPARγ agonist reference molecule, read-out: huPPARγ CTF Efficacy
Protocol: DNA-dependent binding (ABCD binding) was carried out using SPA technology with PPAR receptors. Tritium-labeled PPARα and PPARγ agonists were used as radioligands for generating displacement curves and IC50 values with compounds of the invention. Cotransfection assays were carried out in CV-1 cells. The reporter plasmid contained an acylCoA oxidase (AOX) PPRE and TK promoter upstream of the luciferase reporter cDNA. Appropriate PPARs and RXRα were constitutively expressed using plasmids containing the CMV promoter. […] In order to eliminate such interference, a GAL4 chimeric system was used in which the DNA binding domain of the transfected PPAR was replaced by that of GAL4, and the GAL4 response element was utilized in place of the AOX PPRE. Cotransfection efficacy was determined relative to PPARα agonist and PPARγ agonist reference molecules. Efficacies were determined by computer fit to a concentration-response curve, or in some cases at a single high concentration of agonist (10 μM). For binding or cotransfection studies with receptors other than PPARs, similar assays were carried out using appropriate ligands, receptors, reporter constructs, etc., for that particular receptor.
These studies were carried out to evaluate the ability of compounds of the invention to bind to and/or activate various nuclear transcription factors, particularly huPPARα (“hu” indicates “human”) and huPPARγ. These studies provide in vitro data concerning efficacy and selectivity of compounds of the invention. Furthermore, binding and cotransfection data for compounds of the invention were compared with corresponding data for marketed compounds that act on either huPPARα or huPPARγ.

| Emax | Structure (SMILES) |
| --- | --- |
| 75% | Cc1oc(-c2cccc(Br)c2)nc1CCOc1ccc(CC(C)(Oc2ccccc2)C(=O)O)cc1 (stereo not shown) [Example 8, 3-(4-{2-[2-(3-Bromophenyl)-5-methyloxazol-4-yl]ethoxy}phenyl)-2-methyl-2-phenoxypropionic acid] |
| 73% | Cc1oc(C2(C)CCCCC2)nc1CCOc1ccc(CC(C)(Oc2ccccc2)C(=O)O)cc1 (stereo not shown) [Example 9, 2-Methyl-3-(4-{2-[5-methyl-2-(1-methylcyclohexyl)oxazol-4-yl]ethoxy}phenyl)-2-phenoxypropionic acid] |
| 105% | Cc1oc(-c2cccs2)nc1CCOc1ccc(CC(C)(Oc2ccc(C(C)(C)C)cc2)C(=O)O)cc1 (stereo not shown) [Example 17, 2-Methyl-3-{4-[2-(5-methyl-2-thiophen-2-yl-oxazol-4-yl)-ethoxy]-phenyl}-2-(4-tert-butylphenoxy)-propionic acid] |
| 112% | Cc1oc(C2CCCCC2)nc1CCOc1ccc(CC(C)(Oc2ccc(C(C)(C)C)cc2)C(=O)O)cc1 (stereo not shown) [Example 18, 2-Methyl-3-(4-{2-[5-methyl-2-cyclohexylyl-oxazol-4-yl]-ethoxy}-phenyl)-2-(4-tert-butylphenoxy)-propionic acid] |
| 23% | COc1ccc(OC(C)(Cc2ccc(OCCc3nc(-c4cccs4)oc3C)cc2)C(=O)O)cc1 (stereo not shown) [Example 19, 2-Methyl-3-{4-[2-(5-methyl-2-thiophen-2-yl-oxazol-4-yl)-ethoxy]-phenyl}-2-(4-methoxyphenoxy)-propionic acid] |
| 12% | Cc1oc(-c2cccs2)nc1CCOc1ccc(CC(C)(Oc2cccc(F)c2)C(=O)O)cc1 (stereo not shown) [Example 22, 2-(3-Fluoro-phenoxy)-2-methyl-3-{4-[2-(5-methyl-2-thiophen-2-yl-oxazol-4-yl)-ethoxy]-phenyl}-propionic acid] |
| 17% | Cc1oc(C2CCCCC2)nc1CCOc1ccc(CC(C)(Oc2cccc(F)c2)C(=O)O)cc1 (stereo not shown) [Example 23, 2-(3-Fluoro-phenoxy)-2-methyl-3-{4-[2-(5-methyl-2-cyclohexyl-oxazol-4-yl)-ethoxy]-phenyl}-propionic acid] |
| 106% | Cc1oc(-c2cccs2)nc1CCOc1ccc(CC(C)(Oc2cccc(C(C)(C)C)c2)C(=O)O)cc1 (stereo not shown) [Example 25, 2-(3-tert-Butyl-phenoxy)-2-methyl-3-{4-[2-(5-methyl-2-thiophen-2-yl-oxazol-4-yl)-ethoxy]-phenyl}-propionic acid] |
| 15% | Cc1oc(-c2cccs2)nc1CCOc1ccc(CC(C)(Oc2ccccc2F)C(=O)O)cc1 (stereo not shown) [Example 27, 2-(2-Fluoro-phenoxy)-2-methyl-3-{4-[2-(5-methyl-2-thiophen-2-yl-oxazol-4-yl)-ethoxy]-phenyl}-propionic acid] |
| 82% | Cc1oc(-c2ccccc2)nc1CCOc1ccc(CC(C)(Oc2ccc(Cl)cc2)C(=O)O)cc1 (stereo not shown) [Example 29, 2-(4-Chloro-phenoxy)-2-methyl-3-{4-[2-(5-methyl-2-phenyl-oxazol-4-yl)-ethoxy]-phenyl}-propionic acid] |
| 76% | Cc1oc(C2CCCCC2)nc1CCOc1ccc(CC(C)(Oc2ccc(C3CCCCC3)cc2)C(=O)O)cc1 (stereo not shown) [Example 34, 3-{4-[2-(2-Cyclohexyl-5-methyl-oxazol-4-yl)-ethoxy]-phenyl}-2-(4-cyclohexyl-phenoxy)-2-methyl-propionic acid] |
| 21% | Cc1ccc(OC(C)(Cc2ccc(OCCc3nc(C4CCCCC4)oc3C)cc2)C(=O)O)cc1C (stereo not shown) [Example 35, 3-{4-[2-(2-Cyclohexyl-5-methyl-oxazol-4-yl)-ethoxy]-phenyl}-2-(3,4-dimethyl-phenoxy)-2-methyl-propionic acid] |
| 21% | Cc1ccc(OC(C)(Cc2ccc(OCCc3nc(-c4cccs4)oc3C)cc2)C(=O)O)cc1C (stereo not shown) [Example 36, 2-(3,4-Dimethyl-phenoxy)-2-methyl-3-{4-[2-(5-methyl-2-thiophen-2-yl-oxazol-4-yl)-ethoxy]-phenyl}-propionic acid] |
| 110% | Cc1ccc(OC(C)(Cc2ccc(OCCc3nc(-c4cccs4)oc3C)cc2)C(=O)O)cc1 (stereo not shown) [Example 40, 2-Methyl-3-{4-[2-(5-methyl-2-thiophen-2-yl-oxazol-4-yl)-ethoxy]-phenyl}-2-p-tolyloxy-propionic acid] |
| 11% | Cc1ccc(OC(C)(Cc2ccc(OCCc3nc(C4CCCCC4)oc3C)cc2)C(=O)O)cc1 (stereo not shown) [Example 41, 3-{4-[2-(2-Cyclohexyl-5-methyl-oxazol-4-yl)-ethoxy]-phenyl}-2-methyl-2-p-tolyloxy-propionic acid] |
| 73% | Cc1oc(C2CCCCC2)nc1CCOc1ccc(CC(C)(Oc2ccc(OC(F)(F)F)cc2)C(=O)O)cc1 (stereo not shown) [Example 44, 3-{4-[2-(2-Cyclohexyl-5-methyl-oxazol-4-yl)-ethoxy]-phenyl}-2-methyl-2-(4-trifluoromethoxy-phenoxy)-propionic acid] |
| 48% | Cc1oc(-c2cccs2)nc1CCOc1ccc(CC(C)(Oc2ccc(C(F)(F)F)cc2)C(=O)O)cc1 (stereo not shown) [Example 51, 2-Methyl-3-{4-[2-(5-methyl-2-thiophen-2-yl-oxazol-4-yl)-ethoxy]-phenyl}-2-(4-trifluoromethyl-phenoxy)-propionic acid] |
| 61% | Cc1oc(C2CCCCC2)nc1CCOc1ccc(CC(C)(Oc2ccc(C(F)(F)F)cc2)C(=O)O)cc1 (stereo not shown) [Example 52, 3-{4-[2-(2-Cyclohexyl-5-methyl-oxazol-4-yl)-ethoxy]-phenyl}-2-methyl-2-(4-trifluoromethyl-phenoxy)-propionic acid] |
| 41% | Cc1oc(C2CCCCC2)nc1CCOc1ccc(CC(C)(Oc2ccc(F)c(F)c2)C(=O)O)cc1 (stereo not shown) [Example 58, 3-{4-[2-(2-Cyclohexyl-5-methyl-oxazol-4-yl)-ethoxy]-phenyl}-2-(3,4-difluoro-phenoxy)-2-methyl-propionic acid] |
| 12% | Cc1cccc(OC(C)(Cc2ccc(OCCc3nc(-c4cccs4)oc3C)cc2)C(=O)O)c1 (stereo not shown) [Example 61, 2-Methyl-3-{4-[2-(5-methyl-2-thiophen-2-yl-oxazol-4-yl)-ethoxy]-phenyl}-2-m-tolyloxy-propionic acid] |
| 35% | Cc1cccc(OC(C)(Cc2ccc(OCCc3nc(C4CCCCC4)oc3C)cc2)C(=O)O)c1 (stereo not shown) [Example 62, 3-{4-[2-(2-Cyclohexyl-5-methyl-oxazol-4-yl)-ethoxy]-phenyl}-2-methyl-2-m-tolyloxy-propionic acid] |
| 11% | Cc1oc(-c2cccs2)nc1CCOc1ccc(CC(C)(Oc2ccc(F)cc2)C(=O)O)cc1 (stereo not shown) [Example 64, 2-(4-Fluoro-phenoxy)-2-methyl-3-{4-[2-(5-methyl-2-thiophen-2-yl-oxazol-4-yl)-ethoxy]-phenyl}-propionic acid] |
| 24% | Cc1oc(C2CCCCC2)nc1CCOc1ccc(CC(C)(Oc2ccc(F)cc2)C(=O)O)cc1 (stereo not shown) [Example 65, 3-{4-[2-(2-Cyclohexyl-5-methyl-oxazol-4-yl)-ethoxy]-phenyl}-2-(4-fluoro-phenoxy)-2-methyl-propionic acid] |
| 11% | Cc1oc(C2(C)CCCCC2)nc1CCOc1ccc(C[C@](C)(Oc2ccc(F)cc2)C(=O)O)cc1 [Example 67, (S)-2-(4-Fluoro-phenoxy)-2-methyl-3-(4-{2-[5-methyl-2-(1-methyl-cyclohexyl)-oxazol-4-yl]-ethoxy}-phenyl)-propionic acid] |
| 50% | Cc1oc(-c2cccs2)nc1CCOc1ccc(CC(C)(Oc2cccc(C(F)(F)F)c2)C(=O)O)cc1 (stereo not shown) [Example 71, 2-Methyl-3-{4-[2-(5-methyl-2-thiophen-2-yl-oxazol-4-yl)-ethoxy]-phenyl}-2-(3-trifluoromethyl-phenoxy)-propionic acid] |
